We go through 36 compounds from ChEMBL document CHEMBL3872209, “Inhibitory activity evaluation and mechanistic studies of tetracyclic oxindole derivatives as α-glucosidase inhibitors” (Eur J Med Chem, 2016).

The source made the active and inactive calls. The calls are words filed in the database; no cut-off is given here.

Broadly, the IC50 is the point on the concentration scale where inhibition reaches its midpoint. Low values mean greater potency in that assay, high ones weaker potency in that assay.

The subject of one assay is Saccharomyces cerevisiae. The experiment in a line: Irreversible inhibition of Baker's yeast alpha-glucosidase at 20 uM after 24 hrs by dialysis method.
On to `Nc1ccc(-c2ccc(NC(=O)CC3Oc4ccccc4-c4ccc5c(c43)C(=O)C(=O)N5Cc3ccc(C(F)(F)F)cc3)cc2)cc1` (stereo not drawn), for which the inhibition entry is “Active”.

Biological target in another assay: not listed separately
Put plainly: Inhibition of Baker's yeast alpha-glucosidase using pNGP as substrate after 30 mins by spectrophotometric analysis. Details: species or system Saccharomyces cerevisiae.
Regarding `COc1ccc(NC(=O)CC2Oc3ccccc3-c3ccc4c(c32)C(=O)C(=O)N4Cc2ccc(C(F)(F)F)cc2)cc1` (stereo not drawn), half-maximal inhibition (IC50) required 5.1 µM.

On to `NC(=O)CC1Oc2ccccc2-c2ccc3c(c21)C(=O)C(=O)N3Cc1ccc(C(F)(F)F)cc1` (stereo not drawn), for which the midpoint of inhibition, the IC50, lay at 43.9 µM.

`COC(=O)CC1Nc2ccccc2-c2ccc3c(c21)C(=O)C(=O)N3C` (stereo not drawn) had a concentration for half-maximal inhibition (IC50) of 287 µM.

As for `CN1C(=O)C(=O)c2c1ccc1c2C(CC(=O)Nc2ccccc2)Nc2ccccc2-1` (stereo not drawn), the concentration for half-maximal inhibition (IC50) was found to be 226 µM.

`COC(=O)CC1Oc2ccccc2-c2ccc3c(c21)C(=O)C(=O)N3C` (stereo not drawn) displayed an IC50 of 105 µM.

In turn, `CN(C)CCNC(=O)CC1Oc2ccccc2-c2ccc3c(c21)C(=O)C(=O)N3Cc1ccc(C(F)(F)F)cc1` (stereo not drawn) gave an IC50 of 162 µM.

On to `Cc1cc2c(c3c1N(Cc1ccc(C(F)(F)F)cc1)C(=O)C3=O)C(CC(=O)O)Oc1ccccc1-2` (stereo not drawn), for which the IC50 amounted to 51.5 µM.

With `CNC(=O)CC1Oc2ccccc2-c2ccc3c(c21)C(=O)C(=O)N3Cc1ccc(C(F)(F)F)cc1` (stereo not drawn), the IC50 turned out to be 11.8 µM.

`O=C(O)CC1Oc2ccccc2-c2ccc3c(c21)C(=O)C(=O)N3Cc1ccccc1` (stereo not drawn) returned a half-maximal inhibitory concentration (IC50) of 16 µM.

As to `O=C1C(=O)N(Cc2ccc(C(F)(F)F)cc2)c2ccc3c(c21)C(CC(=O)N1CCNCC1)Oc1ccccc1-3` (stereo not drawn), the half-maximal inhibitory concentration (IC50) was determined as 32.8 µM.

In turn, `COC(=O)CC1Oc2ccccc2-c2cc3c(cc21)N(C)C(=O)C3=O` (stereo not drawn) gave a half-maximal inhibitory concentration (IC50) of 180 µM.

Take `O=C(O)CC1Oc2ccccc2-c2ccc3c(c21)C(F)(F)C(=O)N3Cc1ccc(C(F)(F)F)cc1` (stereo not drawn): the IC50 was determined as 67 µM.

The compound `COC(=O)CC1Oc2ccccc2-c2cc3c(c(C)c21)N(C)C(=O)C3=O` (stereo not drawn) gave an IC50 of 18.5 µM.

In turn, `COC(=O)CC1Oc2ccccc2-c2ccc3c(c21)C(=O)C(=O)N3Cc1ccc(C(F)(F)F)cc1` (stereo not drawn) returned a 50% inhibitory concentration (IC50) of 15.7 µM.

As to `O=C(O)CC1Oc2ccccc2-c2ccc3c(c21)/C(=N/O)C(=O)N3Cc1ccc(C(F)(F)F)cc1` (stereo not drawn), the IC50 worked out at 47.7 µM.

Take `CNC(=O)CC1Oc2ccccc2-c2cc3c(c(C)c21)N(C)C(=O)C3=O` (stereo not drawn): the concentration for half-maximal inhibition (IC50) was more than 300 µM.

`Nc1ccc(-c2ccc(NC(=O)CC3Oc4ccccc4-c4ccc5c(c43)C(=O)C(=O)N5Cc3ccc(C(F)(F)F)cc3)cc2)cc1` (stereo not drawn) yielded a 50% inhibitory concentration (IC50) of 0.7 µM.

On to `O=C1C(=O)N(Cc2ccc(C(F)(F)F)cc2)c2ccc3c(c21)C(CC(=O)N1CCCCC1)Oc1ccccc1-3` (stereo not drawn), for which the 50% inhibitory concentration (IC50) was 4.4 µM.

The compound `O=C(CC1Oc2ccccc2-c2ccc3c(c21)C(=O)C(=O)N3Cc1ccc(C(F)(F)F)cc1)Nc1ccccc1` (stereo not drawn) gave an IC50 of 4 µM.

With `COC(=O)CC1Oc2ccccc2-c2ccc3c(c21)C(=O)C(=O)N3Cc1ccccc1` (stereo not drawn), the IC50 amounted to 12.1 µM.

`Cc1c2c(cc3c1N(C)C(=O)C3=O)-c1ccccc1OC2CC(=O)Nc1ccc(-c2ccc(N)cc2)cc1` (stereo not drawn) had an IC50 of 5.2 µM.

`O=C1C(=O)N(Cc2ccc(C(F)(F)F)cc2)c2ccc3c(c21)C(CC(=O)N1CCOCC1)Oc1ccccc1-3` (stereo not drawn): the IC50 is more than 300 µM.

`COC(=O)CC1Oc2ccccc2-c2cc3c(c(C)c21)N(Cc1ccc(C(F)(F)F)cc1)C(=O)C3=O` (stereo not drawn) showed an IC50 of 26.3 µM.

For `CN1C(=O)C(=O)c2c1ccc1c2C(CC(=O)Nc2ccc(-c3ccc(N)cc3)cc2)Nc2ccccc2-1` (stereo not drawn), half-maximal inhibition (IC50) was put at 8.4 µM.

For the compound `COC(=O)CC1Oc2ccccc2-c2ccc3c(c21)C(=O)C(=O)N3Cc1ccc(OC)cc1` (stereo not drawn), the 50% inhibitory concentration (IC50) was 32.3 µM.

In turn, `Cc1c2c(cc3c1N(Cc1ccc(C(F)(F)F)cc1)C(=O)C3=O)-c1ccccc1OC2CC(=O)O` (stereo not drawn) registered an IC50 of 160 µM.

Take `COC(=O)CC1Nc2ccccc2-c2ccc3c(c21)C(=O)C(=O)N3Cc1ccc(C(F)(F)F)cc1` (stereo not drawn): the IC50 was determined as 37.2 µM.

`O=C(O)CC1Nc2ccccc2-c2ccc3c(c21)C(=O)C(=O)N3Cc1ccc(C(F)(F)F)cc1` (stereo not drawn) had an IC50 of 80 µM.

The compound `CN1C(=O)C(=O)c2c1ccc1c2C(CC(=O)O)Nc2ccccc2-1` (stereo not drawn) returned a half-inhibitory concentration (IC50) of 187 µM.

`O=C(O)CC1Oc2ccccc2-c2ccc3c(c21)C(=O)C(=O)N3Cc1ccc(C(F)(F)F)cc1` (stereo not drawn) gave an IC50 of 4.8 µM.

Regarding `Nc1ccc(-c2ccc(NC(=O)CC3Nc4ccccc4-c4ccc5c(c43)C(=O)C(=O)N5Cc3ccc(C(F)(F)F)cc3)cc2)cc1` (stereo not drawn), the IC50 amounted to 1.9 µM.

`O=C(CC1Nc2ccccc2-c2ccc3c(c21)C(=O)C(=O)N3Cc1ccc(C(F)(F)F)cc1)Nc1ccccc1` (stereo not drawn) displayed a concentration for half-maximal inhibition (IC50) of 4.6 µM.

Take `Cc1c2c(cc3c1N(C)C(=O)C3=O)-c1ccccc1OC2CC(=O)Nc1ccccc1` (stereo not drawn): inhibition was half-maximal at 36.1 µM (IC50).

Take `COC(=O)CC1Nc2ccccc2-c2ccc3c(c21)C(=O)C(=O)N3Cc1ccc(OC)cc1` (stereo not drawn): the IC50 is 45.3 µM.

For `O=C(CC1Oc2ccccc2-c2ccc3c(c21)C(=O)C(=O)N3Cc1ccc(C(F)(F)F)cc1)Nc1ccc(O)cc1` (stereo not drawn), half-maximal inhibition (IC50) required 6.2 µM.

The compound `Cc1c2c(cc3c1N(C)C(=O)C3=O)-c1ccccc1OC2CC(=O)O` (stereo not drawn) displayed a concentration for half-maximal inhibition (IC50) of more than 300 µM.

In another assay the test system is Saccharomyces cerevisiae. Put plainly: Potency index, ratio of acarbose IC50 to compound IC50 for inhibition of Baker's yeast alpha-glucosidase.
`Nc1ccc(-c2ccc(NC(=O)CC3Oc4ccccc4-c4ccc5c(c43)C(=O)C(=O)N5Cc3ccc(C(F)(F)F)cc3)cc2)cc1` (stereo not drawn): the Ratio IC50 was in the range of 165 to 170.

A further assay has as its system Saccharomyces cerevisiae. The experiment in a line: Binding affinity to Baker's yeast alpha-glucosidase after 30 mins by tryptophan fluorescence spectrophotometric method.
Turning to `Nc1ccc(-c2ccc(NC(=O)CC3Oc4ccccc4-c4ccc5c(c43)C(=O)C(=O)N5Cc3ccc(C(F)(F)F)cc3)cc2)cc1` (stereo not drawn), the Activity entry was “Dose-dependent effect”.

In a further assay the test system is Saccharomyces cerevisiae. The experiment in a line: Binding affinity to Baker's yeast alpha-glucosidase at 5 to 50 uM after 30 mins by tryptophan fluorescence spectrophotometric method.
As to `Nc1ccc(-c2ccc(NC(=O)CC3Oc4ccccc4-c4ccc5c(c43)C(=O)C(=O)N5Cc3ccc(C(F)(F)F)cc3)cc2)cc1` (stereo not drawn), the result was Active.

A further assay concerns Saccharomyces cerevisiae. The experiment in a line: Binding affinity to Baker's yeast alpha-glucosidase assessed as reduction in enzyme surface hydrophobicity after 30 mins by Bis-ANS dye based spectrofluorometric method.
Consider `Nc1ccc(-c2ccc(NC(=O)CC3Oc4ccccc4-c4ccc5c(c43)C(=O)C(=O)N5Cc3ccc(C(F)(F)F)cc3)cc2)cc1` (stereo not drawn), for which the Activity result was “Dose-dependent effect”.

For another assay, the system named is Saccharomyces cerevisiae. Put plainly: Mixed type inhibition of Baker's yeast alpha-glucosidase at 1 to 1.5 uM using varying pNGP substrate levels preincubated for 30 mins followed by substrate addition by Lineweaver-Burk plot method.
As to `Nc1ccc(-c2ccc(NC(=O)CC3Oc4ccccc4-c4ccc5c(c43)C(=O)C(=O)N5Cc3ccc(C(F)(F)F)cc3)cc2)cc1` (stereo not drawn), the inhibition entry was “Active”.

A further assay has as its system Saccharomyces cerevisiae. The experiment in a line: […] inhibition of Baker's yeast alpha-glucosidase at 0.5 to 1 uM after 30 mins by Lineweaver-Burk plot method.
For the compound `Nc1ccc(-c2ccc(NC(=O)CC3Oc4ccccc4-c4ccc5c(c43)C(=O)C(=O)N5Cc3ccc(C(F)(F)F)cc3)cc2)cc1` (stereo not drawn), the inhibition entry is “Active”.
